Data as given in ChEMBL document CHEMBL1150447, “Nitrogen and sulfur analogues of the secoCI alkylating agent: Synthesis and cytotoxicity” (Bioorg Med Chem Lett, 1996).

Columns and labels:
Format in all cases: functional, cell-based
[1] = system: CHO-AA8; experiment: Compound was evaluated for cytotoxicity against CHO AA8 cell lines for 4 hr at pH-7.4; settings: Cricetulus griseus, CHO-AA8, 4 h
[2] = system: EMT6; experiment: Compound was evaluated for cytotoxicity against murine mammary carcinoma EMT6 cell lines for 4 hr at pH-7.4; settings: Mus musculus, EMT6, 4 h
[3] = system: UV4; experiment: Compound was evaluated for cytotoxicity against CHO UV4 cell lines for 4 hr at pH-7.4; settings: Cricetulus griseus, UV4, 4 h

Compound | IC50 [1] [µM] | IC50 [2] [µM] | IC50 [3] [µM]
CNc1ccc2c(c1)N(C(=O)c1cc3cc(OC)c(OC)c(OC)c3[nH]1)CC2CCl (configuration not stated) | 0.22 | 0.11 | 0.055
CS(=O)(=O)N1CC(CCl)c2ccc(S)cc21 (configuration not stated) | > 200 | > 200 | 124
CSc1ccc2c(c1)N(S(C)(=O)=O)CC2CCl (configuration not stated) | > 200 | > 200 | > 200
CNc1ccc2c(c1)N(S(C)(=O)=O)CC2CCl (configuration not stated) | 50 | 13 | 4.1
COc1cc2cc(C(=O)N3CC(CCl)c4ccc(N(C)C)cc43)[nH]c2c(OC)c1OC (configuration not stated) | 0.28 | 0.11 | 0.088
COc1cc2cc(C(=O)N3CC(CCl)c4ccc(N)cc43)[nH]c2c(OC)c1OC (configuration not stated) | 0.32 |  | 0.059
CS(=O)(=O)N1CC(CCl)c2ccc(O)cc21 (configuration not stated) | 20 | 7.7 | 1.9
CS(=O)(=O)N1CC(CCl)c2ccc(SSc3ccc4c(c3)N(S(C)(=O)=O)CC4CCl)cc21 (configuration not stated) | > 50 | > 50 | > 50
CN(C)c1ccc2c(c1)N(S(C)(=O)=O)CC2CCl (configuration not stated) | 72 | 20 | 15
CS(=O)(=O)N1CC(CCl)c2ccc(N)cc21 (configuration not stated) | 158 | 33 | 13
COc1cc2cc(C(=O)N3CC(CCl)c4ccc(O)cc43)[nH]c2c(OC)c1OC (configuration not stated) | 0.0065 | 0.0022 | 0.001
